Each molecule was assayed on HBV rcDNA (assay: HepDE19 assay with bDNA quantitation of HBV rcDNA). Conditions: HepDE19 cells, Tet-free medium, 7 day-incubation, rcDNA measured by Quantigene 2.0 bDNA assay, top concentration 25 μM; read-out: DE-19 bDNA EC50.
Format: cell-based, hepatitis B virus
Protocol: HepDE19 Assay with bDNA Quantitation of HBV rcDNA:
HepDE19 cell culture system is a HepG2 (human hepatocarcinoma) derived cell line that supports HBV DNA replication and cccDNA formation in a tetracycline (Tet)-regulated manner and produces HBV rcDNA and a detectable reporter molecule dependent on the production and maintenance of cccDNA (Guo, et al., 2007, J. Virol. 81:12472-12484).
HepDE19 (50,000 cells/well) were plated in 96-well collagen-coated tissue-culture treated microtiter plates in DMEM/F12 medium supplemented with 10% fetal bovine serum, 1% penicillin-streptomycin and 1 μg/mL tetracycline and incubated in a humidified incubator at 37° C. and 5% CO2 overnight. Next day, the cells were switched to fresh medium without tetracycline and incubated for 4 hours at 37° C. and 5% CO2. The cells were treated with fresh Tet-free medium with compounds at concentrations starting at 25 μM and a serial, ½ log, 8-point, titration series in duplicate. The final DMSO concentration in the assay was 0.5%. The plates were incubated for 7 days in a humidified incubator at 37° C. and 5% CO2. Following a 7 day-incubation, the level of rcDNA present in the inhibitor-treated wells was measured using a Quantigene 2.0 bDNA assay kit (Affymetrix, Santa Clara, Calif.) with HBV specific custom probe set and manufacturers instructions. Concurrently, the effect of compounds on cell viability was assessed using replicate plates, plated at a density of 5,000 cells/well and incubated for 4 days, to determine the ATP content as a measure of cell viability using the cell-titer glo reagent (CTG; Promega Corporation, Madison, Wis.) as per manufacturer's instructions. The plates were read using a Victor luminescence plate reader (PerkinElmer Model 1420 Multilabel counter) and the relative luminescence units (RLU) data generated from each well was calculated as % inhibition of the untreated control wells and analyzed using XL-Fit module in Microsoft Excel to determine EC50 and EC90 (bDNA) and CC50 (CTG) values using a 4-parameter curve fitting algorithm.
Representative compounds of the invention were tested for their abilities to inhibit formation of relaxed circular DNA (rcDNA) in a HepDE19 assay, as described elsewhere herein.
In the case of `Cn1cc2c(c1C(=O)Nc1ccc(F)c(Cl)c1)CCC2NS(=O)(=O)C1CC1` (single isomer, unassigned) [Compound 14, N-(3-Chloro-4-fluorophenyl)-4-(cyclopropanesulfonamido)-2-methyl-2,4,5,6-tetrahydrocyclopenta [c]pyrrole-1-carboxamide], the EC50 is reported as 0.07 µM.
Molecule `Cn1c(C(=O)Nc2ccc(F)c(Cl)c2)c2c(c1C(F)(F)F)C(NC(=O)OCc1cn[nH]n1)CC2` (single isomer, unassigned) [Compound 133, (2H-1,2,3-Triazol-4-yl)methyl (1-((3-chloro-4-fluorophenyl)carbamoyl)-2-methyl-3-(trifluoromethyl)-2,4,5,6-tetrahydrocyclopenta[c]pyrrol-4-yl)carbamate] has an EC50 of 0.43 µM.
Molecule `Cn1cnc(COC(=O)NC2CCc3c2c(Cl)n(C)c3C(=O)Nc2ccc(F)c(Cl)c2)n1` (single isomer, unassigned) [Compound 51, (1-Methyl-1H-1,2,4-triazol-3-yl)methyl (3-chloro-1-((3-chloro-4-fluorophenyl)carbamoyl)-2-methyl-2,4,5,6-tetrahydrocyclopenta[c]pyrrol-4-yl)carbamate] has an EC50 of 0.01 µM.
For `Cn1cc2c(c1C(=O)Nc1ccc(F)c(Cl)c1)CCC2NC(=O)OC[C@@H]1CCC(=O)N1` (single isomer, unassigned) [Compound 119], the EC50 was 1.9 µM.
For `Cn1cc2c(c1C(=O)Nc1ccc(F)c(Cl)c1)CCC2NC(=O)OCc1nc[nH]n1` (single isomer, unassigned) [Compound 58, (1H-1,2,4-Triazol-3-yl)methyl (1-((3-chloro-4-fluorophenyl)carbamoyl)-2-methyl-2,4,5,6-tetrahydrocyclopenta[c]pyrrol-4-yl)carbamate], the EC50 was 0.97 µM.
`Cn1cc2c(c1C(=O)Nc1ccc(F)c(Cl)c1)CCC2NC(=O)OCC1(C(N)=O)CC(F)(F)C1` (single isomer, unassigned) [Compound 55, (1-Carbamoyl-3,3-difluorocyclobutyl)methyl(1-((3-chloro-4-fluorophenyl)carbamoyl)-2-methyl-2,4,5,6-tetrahydrocyclopenta[c]pyrrol-4-yl)carbamate] showed an EC50 of 4.4 µM.
In the case of `Cn1cc2c(c1C(=O)Nc1ccc(F)c(Cl)c1)CCC2NS(=O)(=O)C1CC1` (single isomer, unassigned) [Compound 13, N-(3-Chloro-4-fluorophenyl)-4-(cyclopropanesulfonamido)-2-methyl-2,4,5,6-tetrahydrocyclopenta [c]pyrrole-1-carboxamide], the EC50 is reported as 6.8 µM.
With `Cn1cnc(COC(=O)NC2CCc3c2cn(C)c3C(=O)Nc2ccc(F)c(Cl)c2)n1` (single isomer, unassigned) [Compound 26, (1-Methyl-1H-1,2,4-triazol-3-yl)methyl (1-((3-chloro-4-fluorophenyl)carbamoyl)-2-methyl-2,4,5,6-tetrahydrocyclopenta[c]pyrrol-4-yl)carbamate] the EC50 was 0.05 µM.
`Cn1cc2c(c1C(=O)Nc1ccc(F)c(Cl)c1)CCC2NC(=O)OCC1(C(N)=O)CC(F)(F)C1` (single isomer, unassigned) [Compound 56, (1-Carbamoyl-3,3-difluorocyclobutyl)methyl (1-((3-chloro-4-fluorophenyl)carbamoyl)-2-methyl-2,4,5,6-tetrahydrocyclopenta[c]pyrrol-4-yl)carbamate] showed an EC50 of 0.6 µM.
`CCn1cc2c(c1C(=O)Nc1ccc(F)c(Cl)c1)CCC2NC(=O)OCc1ccn(C)n1` (single isomer, unassigned) [Compound 28, (1-Methyl-1H-pyrazol-3-yl)methyl (1-((3-chloro-4-fluorophenyl)carbamoyl)-2-ethyl-2,4,5,6-tetrahydrocyclopenta[c]pyrrol-4-yl)carbamate] showed an EC50 of 0.23 µM.
For `Cc1c2c(c(C(=O)Nc3ccc(F)c(Cl)c3)n1C)CCC2NC(=O)OCc1c[nH]nn1` (single isomer, unassigned) [Compound 131, (1H-1,2,3-Triazol-4-yl)methyl (1-((3-chloro-4-fluorophenyl)carbamoyl)-2,3-dimethyl-2,4,5,6-tetrahydrocyclopenta[c]pyrrol-4-yl)carbamate], the EC50 was 1.7 µM.
With `Cn1cnc(COC(=O)NC2CCc3c2c(Br)n(C)c3C(=O)Nc2ccc(F)c(Cl)c2)n1` (single isomer, unassigned) [Compound 47, (1-Methyl-1H-1,2,4-triazol-3-yl)methyl (3-bromo-1-((3-chloro-4-fluorophenyl)carbamoyl)-2-methyl-2,4,5,6-tetrahydrocyclopenta[c]pyrrol-4-yl)carbamate] the EC50 was 3.1 µM.
`Cn1c(Cl)c2c(c1C(=O)Nc1ccc(F)c(Cl)c1)CCC2NC(=O)OCc1cn[nH]n1` (single isomer, unassigned) [Compound 106, (2H-1,2,3-Triazol-4-yl)methyl (3-chloro-1-((3-chloro-4-fluorophenyl)carbamoyl)-2-methyl-2,4,5,6-tetrahydrocyclopenta[c]pyrrol-4-yl)carbamate] showed an EC50 of 1.4 µM.
`Cn1cc2c(c1C(=O)Nc1ccc(F)c(Cl)c1)CCC2NC(=O)OC[C@H]1CCC(=O)N1` (single isomer, unassigned) [Compound 121] was tested, and the EC50 was 4 µM.
Work on `Cn1c(C(=O)Nc2ccc(F)c(Cl)c2)c2c(c1C(F)(F)F)C(NC(=O)OCc1cn[nH]n1)CC2` (single isomer, unassigned) [Compound 132, (2H-1,2,3-Triazol-4-yl)methyl (1-((3-chloro-4-fluorophenyl)carbamoyl)-2-methyl-3-(trifluoromethyl)-2,4,5,6-tetrahydrocyclopenta[c]pyrrol-4-yl)carbamate] yielded an EC50 of 13 µM.
In the case of `Cn1cc2c(c1C(=O)Nc1ccc(F)c(Cl)c1)CCC2NC(=O)OC[C@@H]1CCC(=O)N1` (single isomer, unassigned) [Compound 118], the EC50 is reported as 0.16 µM.
`Cn1ncc(COC(=O)NC2CCc3c2cn(C)c3C(=O)Nc2ccc(F)c(Cl)c2)n1` (single isomer, unassigned) [Compound 129, (2-Methyl-2H-1,2,3-triazol-4-yl)methyl (1-((3-chloro-4-fluorophenyl)carbamoyl)-2-methyl-2,4,5,6-tetrahydrocyclopenta[c]pyrrol-4-yl)carbamate] showed an EC50 of 0.04 µM.

Same assay, conditions: Hepatitis B virus, HepDE19, 168 h, HepDE19 cells, Tet-free medium, 7 day-incubation, rcDNA measured by Quantigene 2.0 bDNA assay, top concentration 25 μM; read-out: DE-19 bDNA EC50
In the case of `CCn1cc2c(c1C(=O)Nc1ccc(F)c(Cl)c1)CCC2NC(=O)C1CC1` (single isomer, unassigned) [Compound 17, N-(3-Chloro-4-fluorophenyl)-4-(cyclopropanecarboxamido)-2-ethyl-2,4,5,6-tetrahydrocyclopenta[c]pyrrole-1-carboxamide], the EC50 is reported as 4.9 µM.
With `Cn1cnc(CNC(=O)NC2CCCc3c2cn(C)c3C(=O)Nc2ccc(F)c(Cl)c2)n1` (single isomer, unassigned) [Compound 84, N-(3-Chloro-4-fluorophenyl)-2-methyl-4-(3-((1-methyl-1H-1,2,4-triazol-3-yl)methyl)ureido)-4,5,6,7-tetrahydro-2H-isoindole-1-carboxamide] the EC50 was 0.34 µM.

Same assay, conditions: Hepatitis B virus, HepDE19, 168 h, read-out: DE-19 bDNA EC50 (μM), HepDE19 cells, Tet-free medium, 7 day-incubation, rcDNA measured by Quantigene 2.0 bDNA assay, top concentration 25 μM
`CNC(=O)NC1CCc2c1cn(C)c2C(=O)Nc1ccc(F)c(Cl)c1` (racemic) [Compound 3, N-(3-chloro-4-fluorophenyl)-2-methyl-4-(3-methylureido)-2,4,5,6-tetrahydrocyclopenta[c]pyrrole-1-carboxamide] showed an EC50 of 0.94 µM.
Molecule `COC(=O)NC1CCCc2c1cn(C)c2C(=O)Nc1ccc(F)c(Cl)c1` (single isomer, unassigned) [Compound 74, Methyl (1-((3-chloro-4-fluorophenyl)carbamoyl)-2-methyl-4,5,6,7-tetrahydro-2H-isoindol-4-yl)carbamate] has an EC50 of 0.61 µM.

Same assay, conditions: read-out: DE-19 bDNA EC50; HepDE19 cells, Tet-free medium, 7 day-incubation, rcDNA measured by Quantigene 2.0 bDNA assay, top concentration 25 μM
Work on `Cn1cc2c(c1C(=O)Nc1ccc(F)c(Cl)c1)CCC2NC(=O)OCc1nn[nH]n1` (single isomer, unassigned) [Compound 150, (2H-Tetrazol-5-yl)methyl(1-((3-chloro-4-fluorophenyl)carbamoyl)-2-methyl-2,4,5,6-tetrahydrocyclopenta[c]pyrrol-4-yl)carbamate] yielded an EC50 of 6.8 µM.
Molecule `Cn1cnc(COC(=O)NC2CCc3c2c(-c2ccccc2)n(C)c3C(=O)Nc2ccc(F)c(Cl)c2)n1` (single isomer, unassigned) [Compound 108, (1-Methyl-1H-1,2,4-triazol-3-yl)methyl (1-((3-chloro-4-fluorophenyl)carbamoyl)-2-methyl-3-phenyl-2,4,5,6-tetrahydrocyclopenta[c]pyrrol-4-yl)carbamate] has an EC50 of 5.2 µM.

Reference: patent publication US11566002B2, “Substituted tetrahydrocyclopenta[C]pyrroles, substituted dihydropyrrolizines, analogues thereof, and methods using same” (priority 2018, dated 2023)
